Data as given in patent publication EP0402033A1, “Carboxamide derivatives” (OTSUKA PHARMACEUTICAL FACTORY, INC., priority 1989, dated 1990).

Experiments:
erythrocytes = test: Pharmacological Test - 2 (Hemolysis test) in mice after oral administration; assay type: in vivo, ddY-strain male mice; conditions: ddY male mice, 600 mg/5 ml/kg/day for 10 days, 20 hours fasting, mean of test group divided by mean of control group
Protocol: Seven-week-old ddY-strain male mice were used as test animals. One test group consisting of six (6) mice. A test compound was suspended in a 0.5%-carboxymethyl cellulose (CMC) aqueous solution, thus prepared suspension containing the test compound was orally administered compulsorily by using a sonde to the mouse in the amount of 600 mg/5 ml/kg/day for 10 days. Similar to the above, to each of six mice in the control group was administered with 0.5%-CMC aqueous soluiton without containing the test compound.
After the final administration was finished, the mouse was fasted for 20 hours, then the mouse was subjected to dissection and the blood sample as well as the sample of the spleen were taken by enucleation. The number of the erythrocytes was counted and the weight of the spleen was measured.
The ratio of number of the erythrocytes was calculated by dividing the mean value of number of the erythrocytes obtained from the test group by the mean value of number of the erythrocytes obtained from the control group. Similarly, the ratio of weight of the spleen was calculated by dividing the mean value of weight of the spleen obtained from the test group by the mean value of weight of the spleen obtained from the control group.

[1] = test system: plasma high density lipoprotein cholesterol (HDLC); test: Pharmacological Test - 1: increase of plasma HDLC concentration in rats after oral administration; assay type: in vivo, Wistar strain male rats; conditions: Wistar male rats, 300 mg/5 ml/kg/day for 2 days in 0.5%-CMC, blood taken after 20 hours fasting, relative to control group
Protocol: Seven-week-old Wistar strain male rats were used as the test animals. One test group consisting of six (6) rats. A test compound was suspended in a 0.5%-carboxymethyl cellulose (CMC) aqueous solution, thus prepared suspension containing the test compound was orally administered compulsorily by using a sonde to the rat in the amount of 300 mg/5 ml/kg/day for 2 days. Similar to the test group, to each of six (6) rats in the control group was administered with 0.5%-CMC aqueous solution without containing the test compound.
After the final administration was finished, the test rat was fasted for 20 hours, and the blood sample was taken from the rat. The concentration of plasma high density lipoprotein cholesterol (HDLC) was determined by using a measuring instrument of HDL-C kit-N (manufactured by Nihon Shoji Kabushiki Kaisha).
Increasing ratio (%) of plasma HDLC concentration performed by a test compound was calculated from the formula as follows: [formula]

Row | SMILES | Ratio of number of the erythrocytes (erythrocytes) | Ratio of weight of the spleen (erythrocytes) | Increasing ratio (%) of the plasma HDLC concentration [1] [%]
1 | CCOP(=O)(Cc1ccc(C(=O)Nc2ccc(Br)cc2C#N)cc1)OCC [Compound of Example 1, 4-diethoxyphosphinoylmethyl-N-(4-bromo-2-cyanophenyl)benzamide] | 0.96 | 1.13 | 193
2 | CCOP(=O)(Cc1ccc(C(=O)Nc2ccc(C#N)cc2I)cc1)OCC [Compound of Example 7] | – | – | 184
3 | CCOP(=O)(Cc1ccc(C(=O)Nc2ccc(Cl)cc2C#N)cc1)OCC [Compound of Example 2] | 0.97 | 1.09 | 196
4 | CCOP(=O)(Cc1ccc(C(=O)Nc2ccc(C#N)cc2Cl)cc1)OCC [Compound of Example 3] | – | – | 187
5 | CCOP(=O)(Cc1ccc(C(=O)Nc2ccc(C#N)cc2Br)cc1)OCC [Compound of Example 5] | 1.07 | 0.94 | 222
6 | CCOP(=O)(Cc1ccc(C(=O)Nc2ccc(I)cc2C#N)cc1)OCC [Compound of Example 4] | – | – | 187
